Literature values in patent publication US20240197726A1, “NOVEL TETRAHYDROISOQUINOLINE ALKALOID COMPOUND CONTAINING MACROCYCLE” (THE UNIVERSITY OF TOKYO, priority 2021, published 2024).
Read-outs that look alike come from different tables or passages of the source.

Columns and labels:
Conditions in all cases: cited from earlier work
[1] = test system: NCI-H23 lung cancer cells
[2] = test system: MCF-7 breast cancer cells
[3] = test system: MDA-MB-231 breast cancer cells
[4] = test system: A549 lung cancer cells
[5] = test system: NCI-H460 lung cancer cells
[6] = test system: HT-29 colorectal cancer cells
[7] = test system: HCT-116 colorectal cancer cells
[8] = NCl-H23 lung cancer cells, comparative value based on the literature, read-out: antitumor activity GI50 value: 50% growth inhibitory concentration
[9] = MCF-7 breast cancer cells, comparative value based on the literature, read-out: antitumor activity GI50 value: 50% growth inhibitory concentration
[10] = MDA-MB-231 breast cancer cells, comparative value based on the literature, read-out: antitumor activity GI50 value: 50% growth inhibitory concentration
[11] = A549 lung cancer cells, comparative value based on the literature, read-out: antitumor activity GI50 value: 50% growth inhibitory concentration
[12] = NCl--H460 lung cancer cells, comparative value based on the literature, read-out: antitumor activity GI50 value: 50% growth inhibitory concentration
[13] = HT-29 colorectal cancer cells, comparative value based on the literature, read-out: antitumor activity GI50 value: 50% growth inhibitory concentration
[14] = HCT-116 colorectal cancer cells, comparative value based on the literature, read-out: antitumor activity GI50 value: 50% growth inhibitory concentration

Which GI50 ([1]; NCI-H23, reference values from literature (Leal et al. Br. J Pharmacol, 2010), read-out: GI50 value: 50% growth inhibitory concentration) does the source give for `COc1cc2c(cc1O)CCNC21CS[C@@H]2c3c(OC(C)=O)c(C)c4c(c3C(COC1=O)N1[C@@H]2[C@H]2c3c(cc(C)c(OC)c3O)C[C@@H]([C@@H]1O)N2C)OCO4` (stereo partly shown) [Ecteinascidin 743, reference compound] here?
The GI50 was 2.1 nM.

What about the GI50 ([2]; MCF-7, reference values from literature (Leal et al. Br. J Pharmacol, 2010), listed as drawing 118, read-out: GI50 value: 50% growth inhibitory concentration) of the same compound?
The GI50 was 2.6 nM.

What about the GI50 ([2]; MCF-7, reference values from literature (Leal et al. Br. J Pharmacol, 2010), listed as drawing 142, read-out: GI50 value: 50% growth inhibitory concentration) of the same compound?
The GI50 was 2.8 nM.

What about the GI50 ([3]; MDA-MB-231, reference values from literature (Leal et al. Br. J Pharmacol, 2010), read-out: GI50 value: 50% growth inhibitory concentration) of the same compound?
Its GI50 is 3.9 nM.

What about the GI50 ([4]; A549, reference values from literature (Leal et al. Br. J Pharmacol, 2010), read-out: GI50 value: 50% growth inhibitory concentration) of the same compound?
Its GI50 is 10.4 nM.

And the GI50 ([5]; NCI-H460, reference values from literature (Leal et al. Br. J Pharmacol, 2010), read-out: GI50 value: 50% growth inhibitory concentration)?
Its GI50 is 1.8 nM.

And the GI50 ([6]; HT-29, reference values from literature (Leal et al. Br. J Pharmacol, 2010), read-out: GI50 value: 50% growth inhibitory concentration)?
The GI50 was 9.8 nM.

And the GI50 ([7]; HCT-116, reference values from literature (Leal et al. Br. J Pharmacol, 2010), read-out: GI50 value: 50% growth inhibitory concentration)?
The GI50 was 4.9 nM.

With `COc1c(C)cc2c(c1C)[C@H]1N(C)[C@@](C)(C2)C(C)N2C1(C)[C@@H]1CCC3(NCCc4cc(C)c(C)cc43)C(=O)OC[C@@]2(C)c2c3c(c(C)c(C)c21)OCO3` (stereo partly shown) as the compound, how does the GI50 [1, 8] read?
Its GI50 is 2.1 nM.

And the GI50 [2, 9]?
The GI50 was 2.6 nM.

And the GI50 [3, 10]?
Its GI50 is 3.9 nM.

And the GI50 [4, 11]?
The GI50 was 10.4 nM.

And the GI50 [5, 12]?
The GI50 was 1.8 nM.

What about the GI50 [6, 13] of the same compound?
Its GI50 is 9.8 nM.

What about the GI50 [7, 14] of the same compound?
Its GI50 is 4.9 nM.

For `COc1c(C)cc2c(c1C)[C@H]1N(C)[C@@](C)(C2)C(C)N2C1(C)[C@@H]1CCC3(CCCC4=C3Cc3ccc(C)cc34)C(=O)OC[C@@]2(C)c2c3c(c(C)c(C)c21)OCO3` (stereo partly shown) [drawing 163], which GI50 [1, 8] is on record?
The GI50 was 5.3 nM.

And the GI50 [2, 9]?
Its GI50 is 1.7 nM.

What about the GI50 [3, 10] of the same compound?
The GI50 was 3.4 nM.

And the GI50 [4, 11]?
Its GI50 is 1.3 nM.

What about the GI50 [5, 12] of the same compound?
Its GI50 is 1.5 nM.

What about the GI50 [6, 13] of the same compound?
The GI50 was 2.4 nM.

What about the GI50 [7, 14] of the same compound?
The GI50 was 6.4 nM.
